Reference: US10441540B2, “Liposomal lupeol acetate and the use thereof in preparing drugs for rheumatoid arthritis” (NATIONAL YANG-MING UNIVERSITY, priority 2014, dated 2019)

Assays:
RAW 264.7 cells = test: MTT cell viability of RAW 264.7 cells; assay type: cell-based; details: 2.5-10 nM, 24 hours
Protocol: RAW 264.7 cells (a mouse leukaemic monocyte macrophage cell line) were treated with solutions containing liposomal lupeol acetate (10 ? 20 ? 40 ? 80 μM) and NF-kB inhibitor QNZ (2.5 ? 5 ? 7.5 ? 10 nM), respectively, for 24 hours, then the viability was analyzed by MTT method, comparing to the results of the control group.
5×10^4 RAW264.7 cells/well were seeded in 96-well culture dishes, and treated with directed concentration of liposomal lupeol acetate and QNZ for 24 hours after the 24-hr attachment. After removing the culture medium, 100 μl of 0.5 mg/ml MTT solution was added, and the cells were incubated at 37° C. for 4 hours. The mitochondrial enzyme (succinate dehydrogenase, SDH) in living cells will react with tetrazolium bromide in the MTT solution and form formazan blue-purple crystals. The MTT solution was removed and 200 μl DMSO was added to dissolve the blue-purple crystal, and then the O.D. (optical density) value was read under wavelength of 570 nm on an ELISA reader (TECAN Sunrise, USA). The relative cell viability is calculated by comparing the absorbance value of drug treated group with that of the control group (setting the value of control group as 100%).

NFATc1 = NFATc1 expression by real-time Q-PCR under RANKL induction; assay type: cell-based; details: NF-κB inhibitor 5 nM
Excerpt: (§1) The cells were stained with tartrate-resistant acid phosphatase (TRAP) and observed by microscopy to assure the differentiation of osteoclast after the cultivation of five days (Bar=200 μm).
Next, the real time Q-PCR is used for analyzing the change of NFATc1 (nuclear factor of activated T cell, the major factor of osteoclast proliferation and known as cytoplasmic 1) under the RANKL induction and drug treatments.

[1] = system: collagen-induced arthritis (CIA) in DBA/1J mice; test: Collagen-induced arthritis (CIA) animal model; details: oral daily
[2] = system: inflammatory condition induced by carrageenan; details: Lucetti D L et al. J Inflamm 2010; cited from earlier work
rheumatoid arthritis = details: US Patent Application no. 20120177754; 100 mg/kg, 12 days needed in mice; cited from earlier work
IL-10 = IL-10 in mouse hind leg proteins, Western blotting; details: 100 mg/kg LA or 50 mg/kg Lipo-LA, day 32
Protocol: (§4) The mice were sacrificed by cervical dislocation on the 32nd day of the animal experiment. The whole leg of mouse was removed, and the leg tissue was ground by adding an appropriate amount of lysis buffer (tissue protein extraction reagent, T-PER, Pierce Protein Biology Products, IL, USA), centrifuged at 15,000 rpm for 20 minutes, and the supernatant is taken as the sample for each group.
(§5) Meanwhile, we also use Western blotting to observe the proteins extracted from mouse hind legs, and observe the expression level of immunosuppression-related proteins TGF-β and IL-10 secreted from Treg cells.

IL-1β = test: Immunohistochemistry of IL-1β in leg joints of CIA mice; assay type: in vivo, mouse; details: 100 mg/kg LA or 50 mg/kg Lipo-LA, day 43, vs RA group
Excerpt: (§2) In FIG. 8A, mice were sacrificed at the end of the animal experiment (day 43), and the legs was removed for the immunohistochemistry (IHC) of TNF-α and IL-1β and H&E staining. The arrows in H&E images indicate the position of articular cavity. There is significant accumulation of TNF-α and IL-1β appeared in the RA group.
(§3) Observing the suppressive effects of Lipo-LA on joint inflammation using immunohistochemistry (IHC). […] The legs of mouse were removed and subjected to paraffin embedding and sectioning. The sections were stained with anti-TNF-α and anti-IL-1β antibodies, respectively to assess the distribution of inflammatory cytokines.

TNF-α = test: Immunohistochemistry of TNF-α in leg joints of CIA mice; assay type: in vivo, mouse; details: 100 mg/kg LA or 50 mg/kg Lipo-LA, day 43, vs RA group
Excerpt: as §2, §3

TGF-β = TGF-β in mouse hind leg proteins, Western blotting; details: 100 mg/kg LA or 50 mg/kg Lipo-LA, day 32
Protocol: as §4, §5

osteoclasts = test: TRAP staining of RANKL-induced osteoclast differentiation from macrophage; assay type: cell-based; details: 100 ng/ml RANKL, five days
Excerpt: as §1
To evaluate the effects of the liposomal lupeol acetate (Lipo-LA) of present invention on the suppression of rheumatoid arthritis, we firstly analyze the differentiation of osteoclasts from certain cells using the tartrate-resistant acid phosphatase (TRAP) staining method. The TRAP staining is used to detect the internal acid phosphatase activity of leukocytes in a blood, bone or tissue sample. Because osteoclasts contain acid phosphatase, we can use this staining method to determine the formation of osteoclast cells.
After removing the supernatant of culture, the cells are rinsed with PBS for two times, and then fixed with 3.7% paraformaldehyde for 1 hour. The fixed cells are washed with PBS. The Acid Phophatase Leukocyte kit (TRAP stain, Cat. 387-A, Sigma-Aldrich, USA) is used in the TRAP staining and the method is briefly described as follow. Before staining, the temperature of ddH2O used for adjuvant preparation is confirmed to be 37° C. The Fast Garnet GBC base and sodium nitrite solution at equal volumes are uniformly mixed for 30 seconds and incubated at room temperature for at least two minutes. […]

[3] = 100 mg/kg LA or 50 mg/kg Lipo-LA, vs RA group

Compound	cell death of RAW264.7 cells (cell viability, MTT) (RAW 264.7 cells)	expression of NFATc1 (NFATc1)	arthritis scores (highest 16 points per mouse) [1, 3]	foot swelling [1, 3]	incidence of arthritis [1, 3]	toxic effects judged by changes in body weight of mice ([1]; 100 mg/kg LA)	inflammatory condition induced by carrageenan in mice [2]	inhibiting inflammation and treatment of rheumatoid arthritis (rheumatoid arthritis)	level of IL-10 (IL-10)	IL-1β staining (IHC) in joint (IL-1β)	TNF-α staining (IHC) in joint (TNF-α)	level of TGF-β (TGF-β)	differentiation of osteoclast from macrophage (TRAP staining) (osteoclasts)
Nc1ccc2ncnc(NCCc3ccc(Oc4ccccc4)cc3)c2c1 [QNZ]	does not cause significant cell death	reduces											
Lupeol acetate [LA]			significantly less scores	significantly reduced	decreased incidence percentages	no toxic effects	effectively mitigate	significant therapeutic effect	rising trend	improvements	improvements	rising trend	inhibitory effects
